Reference: patent publication US10239869B2, “Sulfonamide compounds as voltage-gated sodium channel modulators” (LUPIN LIMITED, priority 2015, dated 2019)

Target: Nav 1.5 (Homo sapiens (Human), UniProt Q14524)
Assay: Inhibition of sodium channels, Red Membrane Potential Dye FLIPR assay, veratridine depolarization
Format: cell-based
Conditions: HEK-293 cells overexpressing the channel; for IC50: read-out: Nav1.5 IC50 (bound given in μM)

Sequence of Nav 1.5 (Q14524 whole entry): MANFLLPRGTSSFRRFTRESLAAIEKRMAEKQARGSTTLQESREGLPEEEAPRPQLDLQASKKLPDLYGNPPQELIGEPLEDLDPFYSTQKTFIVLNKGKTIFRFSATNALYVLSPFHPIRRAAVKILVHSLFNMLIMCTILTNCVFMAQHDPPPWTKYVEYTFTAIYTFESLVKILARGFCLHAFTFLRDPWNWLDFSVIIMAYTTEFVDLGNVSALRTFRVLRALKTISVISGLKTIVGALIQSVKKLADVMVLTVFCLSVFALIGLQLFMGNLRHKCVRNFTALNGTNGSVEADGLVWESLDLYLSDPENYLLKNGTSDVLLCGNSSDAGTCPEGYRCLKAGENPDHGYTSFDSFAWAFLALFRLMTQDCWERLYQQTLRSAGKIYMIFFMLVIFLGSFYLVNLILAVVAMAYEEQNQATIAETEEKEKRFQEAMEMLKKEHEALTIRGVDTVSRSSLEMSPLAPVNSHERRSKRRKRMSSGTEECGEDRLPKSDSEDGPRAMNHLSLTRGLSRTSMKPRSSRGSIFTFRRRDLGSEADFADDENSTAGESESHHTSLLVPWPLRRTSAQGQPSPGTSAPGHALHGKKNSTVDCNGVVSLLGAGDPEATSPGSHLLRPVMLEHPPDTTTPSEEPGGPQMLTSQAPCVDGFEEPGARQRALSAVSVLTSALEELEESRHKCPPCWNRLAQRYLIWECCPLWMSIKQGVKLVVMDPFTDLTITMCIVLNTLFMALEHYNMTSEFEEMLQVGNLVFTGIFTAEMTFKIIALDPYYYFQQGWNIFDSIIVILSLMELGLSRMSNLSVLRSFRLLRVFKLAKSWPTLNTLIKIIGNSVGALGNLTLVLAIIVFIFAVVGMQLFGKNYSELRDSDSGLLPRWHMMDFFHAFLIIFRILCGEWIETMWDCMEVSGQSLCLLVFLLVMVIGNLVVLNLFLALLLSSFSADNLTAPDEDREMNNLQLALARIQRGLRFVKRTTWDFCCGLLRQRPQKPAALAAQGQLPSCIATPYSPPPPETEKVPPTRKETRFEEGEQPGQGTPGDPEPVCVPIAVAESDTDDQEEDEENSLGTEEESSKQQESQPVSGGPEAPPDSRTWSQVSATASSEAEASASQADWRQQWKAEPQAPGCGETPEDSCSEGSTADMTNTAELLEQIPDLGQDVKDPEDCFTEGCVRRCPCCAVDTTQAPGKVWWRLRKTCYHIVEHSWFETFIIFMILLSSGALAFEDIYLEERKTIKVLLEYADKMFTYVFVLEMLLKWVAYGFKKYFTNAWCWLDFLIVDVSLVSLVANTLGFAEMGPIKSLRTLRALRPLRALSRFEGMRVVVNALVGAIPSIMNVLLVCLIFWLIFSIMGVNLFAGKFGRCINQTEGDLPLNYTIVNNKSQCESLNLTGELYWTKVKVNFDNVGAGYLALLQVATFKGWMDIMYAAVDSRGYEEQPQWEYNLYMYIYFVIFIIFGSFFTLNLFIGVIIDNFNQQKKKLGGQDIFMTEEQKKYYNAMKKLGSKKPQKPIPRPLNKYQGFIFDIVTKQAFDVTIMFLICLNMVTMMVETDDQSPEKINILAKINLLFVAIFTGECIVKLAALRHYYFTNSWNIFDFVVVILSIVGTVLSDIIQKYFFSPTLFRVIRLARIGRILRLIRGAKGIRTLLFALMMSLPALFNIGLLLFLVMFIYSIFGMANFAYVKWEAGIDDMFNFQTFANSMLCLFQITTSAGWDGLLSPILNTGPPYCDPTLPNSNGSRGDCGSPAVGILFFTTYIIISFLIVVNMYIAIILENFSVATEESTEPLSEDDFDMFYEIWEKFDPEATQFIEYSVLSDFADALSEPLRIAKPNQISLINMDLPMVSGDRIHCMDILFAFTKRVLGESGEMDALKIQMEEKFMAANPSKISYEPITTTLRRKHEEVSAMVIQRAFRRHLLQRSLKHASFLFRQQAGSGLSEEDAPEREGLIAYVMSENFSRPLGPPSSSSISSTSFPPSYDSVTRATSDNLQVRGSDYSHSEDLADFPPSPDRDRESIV

`O=S(=O)(Nc1ncccn1)c1ccc2c(c1)OCC[C@@H]2c1ccc(C(F)(F)F)cc1-c1ccc(F)cn1` [Example-194, (S&R)-4-(2-(5-fluoropyridin-2-yl)-4-(trifluoromethyl)phenyl)-N-(pyrimidin-2-yl)chroman-7-sulfonamide] was tested, and the “Nav1.5 % inhibition @ 10 μM” value was 65%.

`O=S(=O)(Nc1cccc(F)n1)c1ccc2c(c1)OCC[C@@H]2c1ccc(C(F)(F)F)cc1-n1ccnn1` [Example 60, (S&R)-4-(2-(1H-1,2,3-Triazol-1-yl)-4-(trifluoromethyl)phenyl)-N-(6-fluoropyridin-2-yl) chromane-7-sulfonamide] was tested, and the IC50 was over 10 µM.

`Cn1nccc1-c1cc(C(F)(F)F)ccc1[C@H]1CCOc2cc(S(=O)(=O)Nc3cnccn3)ccc21` [Example 12, (S&R)-4-(2-(1-Methyl-1H-pyrazol-5-yl)-4-(trifluoromethyl)phenyl)-N-(pyrazin-2-yl) chromane-7-sulfonamide] showed an IC50 of over 10 µM.

With `O=S(=O)(Nc1ncc(F)cn1)c1ccc2c(c1)OCC[C@H]2c1ccc(C(F)(F)F)cc1-c1ccc(F)nc1` [Example 37, (S&R)-4-(2-(6-Fluoropyridin-3-yl)-4-(trifluoromethyl)phenyl)-N-(5-fluoropyrimidin-2-yl) chromane-7-sulfonamide] the IC50 was over 10 µM.

With `O=S(=O)(Nc1ccncn1)c1ccc2c(c1)OCC[C@@H]2c1ccc(C(F)(F)F)cc1-c1ccc(F)cc1` [Example 48, (S&R)-4-(4′-Fluoro-5-(trifluoromethyl)-[1,1′-biphenyl]-2-yl)-N-(pyrimidin-4-yl)chromane-7-sulfonamide] the IC50 was over 10 µM.

`O=S1(=O)CCN(c2cc(C(F)(F)F)ccc2[C@H]2CCOc3cc(S(=O)(=O)Nc4ncccn4)ccc32)CC1` [Example-233, (S&R)-4-(2-(1,1-dioxidothiomorpholino)-4-(trifluoromethyl)phenyl)-N-(pyrimidin-2-yl)chroman-7-sulfonamide] was tested, and the IC50 was over 10 µM.

In the case of `O=S(=O)(Nc1ncccn1)c1ccc2c(c1)OCC[C@@H]2c1ccc(C(F)(F)F)cc1N1CCOCC1` [Example 119, (S&R)-4-(2-morpholino-4-(trifluoromethyl)phenyl)-N-(pyrimidin-2-yl)chroman-7-sulfonamide], the “Nav1.5 % inhibition @ 10 μM” value was 30%.

In the case of `Cn1nccc1-c1cc(C(F)(F)F)ccc1[C@H]1CCOc2cc(S(=O)(=O)Nc3cc(F)ccn3)ccc21` [Example 4, (S&R)—N-(4-Fluoropyridin-2-yl)-4-(2-(1-methyl-1H-pyrazol-5-yl)-4-(trifluoromethyl)phenyl)chroman-7-sulfonamide], the “Nav1.5 % inhibition @ 10 μM” value was 57%.

`O=S(=O)(Nc1ncccn1)c1ccc2c(c1)OCC[C@@H]2c1ccc(C(F)(F)F)cc1-n1ccnn1` [Example 52, (S&R)-4-(2-(1H-1,2,3-Triazol-1-yl)-4-(trifluoromethyl)phenyl)-N-(pyrimidin-2-yl)chromane-7-sulfonamide] was tested, and the IC50 was over 10 µM.

For `O=S(=O)(Nc1ncc(F)cn1)c1ccc2c(c1)OCC[C@@H]2c1ccc(C(F)(F)F)cc1-c1ccc(F)cc1` [Example 46, (S&R)-4-(4′-Fluoro-5-(trifluoromethyl)-[1,1′-biphenyl]-2-yl)-N-(5-fluoropyrimidin-2-yl) chromane-7-sulfonamide], the IC50 was over 10 µM.

With `O=S(=O)(Nc1cccc(F)n1)c1ccc2c(c1)OCC[C@@H]2c1ccc(C(F)(F)F)cc1-c1ccc(F)cc1` [Example 50, (S&R)-4-(4′-Fluoro-5-(trifluoromethyl)-[, 1′-biphenyl]-2-yl)-N-(6-fluoropyridin-2-yl) chromane-7-sulfonamide] the “Nav1.5 % inhibition @ 10 μM” value was 38%.

With `O=S1(=O)CCN(c2cc(C(F)(F)F)ccc2[C@H]2CCOc3cc(S(=O)(=O)Nc4ncc(F)cn4)ccc32)CC1` (racemic) [Example-234, (R/S)-4-(2-(1,1-dioxidothiomorpholino)-4-(trifluoromethyl)phenyl)-N-(5-fluoropyrimidin-2-yl)chroman-7-sulfonamide] the IC50 was over 10 µM.

Compound `Cn1nccc1-c1cc(C(F)(F)F)ccc1[C@H]1CCOc2cc(S(=O)(=O)Nc3ccncn3)ccc21` [Example 10, (S&R)-4-(2-(1-Methyl-1H-pyrazol-5-yl)-4-(trifluoromethyl)phenyl)-N-(pyrimidin-4-yl) chroman-7-sulfonamide] has an IC50 of over 10 µM.
